According to patent US20230322767A1, “ARYL SUBSTITUTED PYRROLO-PYRIDINONES AND THERAPEUTIC USES THEREOF” (Bayer Aktiengesellschaft, priority 2020, published 2023):
Read-outs that look alike come from different tables or passages of the source.

Tests used:
Type in all cases: biochemical
CSNK1A1 = CSNK1A1 (Homo sapiens (Human), UniProt P48729); experiment: CSNK1A1 Assay 2 (ADP-Glo, 1 μM ATP); details: median, read-out: CSNK1A1 Assay 2 IC50 [mol/l] (median)
Outline: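 Enzyme (~0.0375 ng/μL) preincubated 15 min at 22° C with compound in HEPES pH 7.5 buffer, then reacted with 1 μM ATP and biotin-Ahx-KRRRAL-pS-VASLPGL peptide. ADP product measured by ADP-Glo luminescence after 1 h ATP depletion and 1 h detection at 22° C.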

CSNK1D = CSNK1D (Homo sapiens (Human), UniProt P48730); experiment: CSNK1D Assay (ADP-Glo, 1 μM ATP); details: median, read-out: CSNK1D IC50 [mol/l] (median)
CSNK1D, sequence (P48730 whole entry): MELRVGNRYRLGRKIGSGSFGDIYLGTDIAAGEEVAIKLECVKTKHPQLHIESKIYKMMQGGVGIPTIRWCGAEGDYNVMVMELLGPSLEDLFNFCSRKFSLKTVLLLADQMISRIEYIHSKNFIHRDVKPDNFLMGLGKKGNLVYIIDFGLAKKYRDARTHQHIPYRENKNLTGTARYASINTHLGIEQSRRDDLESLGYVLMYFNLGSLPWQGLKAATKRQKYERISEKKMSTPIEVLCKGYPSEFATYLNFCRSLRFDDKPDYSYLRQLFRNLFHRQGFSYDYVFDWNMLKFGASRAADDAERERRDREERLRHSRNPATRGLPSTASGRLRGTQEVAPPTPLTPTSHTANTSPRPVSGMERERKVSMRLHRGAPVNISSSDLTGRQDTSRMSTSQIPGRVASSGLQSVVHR
Outline: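 Enzyme preincubated with compound 15 min at 22° C in 50 mM HEPES pH 7.5 buffer with 10 mM MgCl2, 1 mM DTT; kinase reaction run at 1 μM ATP with biotinylated peptide substrate. ADP formed was detected by ADP-Glo luminescence as the measure of activity.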

[1] = target: wild-type Epidermal Growth Factor Receptor (EGFR) (Homo sapiens (Human), UniProt P00533); experiment: WT-EGFR Kinase Assay (TR-FRET, 2 mM ATP)
wild-type Epidermal Growth Factor Receptor (EGFR), sequence (P00533 669-1210): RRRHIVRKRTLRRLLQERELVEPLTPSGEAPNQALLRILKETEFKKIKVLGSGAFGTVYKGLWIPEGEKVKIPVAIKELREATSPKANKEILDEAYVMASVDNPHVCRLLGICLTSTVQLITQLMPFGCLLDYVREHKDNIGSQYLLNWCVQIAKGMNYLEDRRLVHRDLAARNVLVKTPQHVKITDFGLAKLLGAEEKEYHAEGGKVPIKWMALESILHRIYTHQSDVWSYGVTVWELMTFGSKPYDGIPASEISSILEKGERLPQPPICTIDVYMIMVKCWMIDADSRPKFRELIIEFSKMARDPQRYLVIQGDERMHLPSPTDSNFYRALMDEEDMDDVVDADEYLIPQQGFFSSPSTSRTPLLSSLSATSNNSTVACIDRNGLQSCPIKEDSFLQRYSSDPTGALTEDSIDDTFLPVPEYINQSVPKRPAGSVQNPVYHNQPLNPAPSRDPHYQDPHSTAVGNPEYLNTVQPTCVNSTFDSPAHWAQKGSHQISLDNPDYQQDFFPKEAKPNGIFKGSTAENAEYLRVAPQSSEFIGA
Outline: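 GST-tagged human EGFR (R669–A1210, Sf9-expressed) preincubated 15 min at 22° C with compound in pH 7.0 Hepes/MgCl2 buffer, then reacted at 2 mM ATP with a biotinylated peptide substrate. Phosphorylation detected by TR-FRET (streptavidin-XL665, Tb-cryptate anti-phosphotyrosine) as the 665/620 nm emission ratio.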

[2] = EGFR Wildtyp 2 mM ATP IC50 [mol/l] (median), median or individual measurements
[3] = read-out: EGFR Wildtyp 2 mM ATP IC50 [mol/l] (median), median or individual measurements

CSNK1A1, sequence (P48729 whole entry): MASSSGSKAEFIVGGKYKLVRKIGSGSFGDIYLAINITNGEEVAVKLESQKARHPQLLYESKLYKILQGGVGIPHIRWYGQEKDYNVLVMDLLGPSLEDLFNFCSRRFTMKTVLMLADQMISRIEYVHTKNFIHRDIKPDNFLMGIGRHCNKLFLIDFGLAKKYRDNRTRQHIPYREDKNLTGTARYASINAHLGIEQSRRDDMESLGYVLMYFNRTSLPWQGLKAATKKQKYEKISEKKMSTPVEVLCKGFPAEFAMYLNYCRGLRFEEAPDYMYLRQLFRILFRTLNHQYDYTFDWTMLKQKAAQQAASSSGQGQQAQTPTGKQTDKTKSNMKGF

Row | Compound | IC50 (CSNK1A1) [nM] | IC50 (CSNK1D) [nM] | IC50 [1, 2] [nM] | IC50 [1, 3] [nM]
1 | CC(C(=O)Nc1cc(-c2[nH]c3c(c2-c2ccc(Cl)cc2)C(=O)NC(C)(C)C3)ccn1)c1ccc(F)cc1 (racemic) [Example 89, N-{4-[3-(4-chlorophenyl)-6,6-dimethyl-4-oxo-4,5,6,7-tetrahydro-1H-pyrrolo[3,2-c]pyridin-2-yl]pyridin-2-yl}-2-(4-fluorophenyl)propanamide] | 6.8 | 4.3 | > 20000 | 
2 | CC(C(=O)Nc1cc(-c2[nH]c3c(c2-c2ccc(F)cc2F)C(=O)N(C)CC3)ccn1)c1ccc(F)cc1 (single isomer, unassigned) [Example 71, N-{4-[3-(2,4-difluorophenyl)-5-methyl-4-oxo-4,5,6,7-tetrahydro-1H-pyrrolo[3,2-c]pyridin-2-yl]pyridin-2-yl}-2-(4-fluorophenyl)propanamide] | 1.7 | 2.1 |  | > 20000
3 | CC(C(=O)Nc1cc(-c2[nH]c3ccn(C)c(=O)c3c2-c2cc(F)ccc2F)ccn1)c1ccc(F)cc1 (racemic) [Example 120, N-{4-[3-(2,5-difluorophenyl)-5-methyl-4-oxo-4,5-dihydro-1H-pyrrolo[3,2-c]pyridin-2-yl]pyridin-2-yl}-2-(4-fluorophenyl)propanamide] | 6.5 | 8.1 | > 20000 | 
4 | CN1C(=O)c2c([nH]c(-c3ccnc(NC(=O)C(CC(F)F)c4ccc(F)cc4)c3)c2-c2ccccc2)CC12CC2 (racemic) [Example 80, 4,4-difluoro-2-(4-fluorophenyl)-N-[4-(5′-methyl-4′-oxo-3′-phenyl-1′,4′,5′,7′-tetrahydrospiro-[cyclopropane-1,6′-pyrrolo[3,2-c]pyridin]-2′-yl)pyridin-2-yl]butanamide] | 4.7 | 5.1 | > 20000 | 
5 | Cn1cc(CC(F)F)c2[nH]c(-c3ccnc(NC(=O)C(CC(F)F)c4ccc(F)cc4)c3)c(-c3ccccc3)c2c1=O (single isomer, unassigned) [Example 148, N-{4-[7-(2,2-difluoroethyl)-5-methyl-4-oxo-3-phenyl-4,5-dihydro-1H-pyrrolo[3,2-c]pyridin-2-yl]pyridin-2-yl}-4,4-difluoro-2-(4-fluorophenyl)butanamide] | 12 | 6.8 | 8750 | 
6 | CC(C(=O)Nc1cc(-c2[nH]c3c(c2-c2ccccc2)C(=O)N(C)CC3)ccn1)c1ccncc1 (stereo not shown) [Example 154, N-[4-(5-methyl-4-oxo-3-phenyl-4,5,6,7-tetrahydro-1H-pyrrolo[3,2-c]pyridin-2-yl)pyridin-2-yl]-2-(pyridin-4-yl)propanamide] | 5.1 | 6 | > 20000 | 
7 | Cn1ccc2[nH]c(-c3ccnc(NC(=O)C(CC(F)F)c4ccc(F)cc4)c3)c(-c3ccc(F)cc3)c2c1=O (racemic) [Example 107, 4,4-difluoro-2-(4-fluorophenyl)-N-{4-[3-(4-fluorophenyl)-5-methyl-4-oxo-4,5-dihydro-1H-pyrrolo[3,2-c]pyridin-2-yl]pyridin-2-yl}butanamide] | 3.5 | 4.4 | > 20000 | 
8 | O=C(Nc1cc(-c2[nH]c3ccn(C4CC4)c(=O)c3c2-c2ccccn2)ccn1)C(CC(F)F)c1ccc(F)cc1 (racemic) [Example 160, (2RS)—N-{4-[5-cyclopropyl-4-oxo-3-(pyridin-2-yl)-4,5-dihydro-1H-pyrrolo[3,2-c]pyridin-2-yl]pyridin-2-yl}-4,4-difluoro-2-(4-fluorophenyl)butanamide] | 8.7 | 10 | > 20000 | 
9 | CC(C(=O)Nc1cc(-c2[nH]c3ccn(C)c(=O)c3c2-c2ccco2)ccn1)c1ccc(F)cc1 (racemic) [Example 116, 2-(4-fluorophenyl)-N-{4-[3-(2-furyl)-5-methyl-4-oxo-4,5-dihydro-1H-pyrrolo[3,2-c]pyridin-2-yl]pyridin-2-yl}propanamide] | 3.3 | 7.8 | > 5710 | > 5710
10 | Cn1cc(CC(F)F)c2[nH]c(-c3ccnc(NC(=O)C(CC(F)F)c4ccc(F)cc4)c3)c(-c3ccccc3)c2c1=O (single isomer, unassigned) [Example 149, N-{4-[7-(2,2-difluoroethyl)-5-methyl-4-oxo-3-phenyl-4,5-dihydro-1H-pyrrolo[3,2-c]pyridin-2-yl]pyridin-2-yl}-4,4-difluoro-2-(4-fluorophenyl)butanamide] | 3.7 | 3.8 | > 20000 | 
11 | CC(C(=O)Nc1cc(-c2[nH]c3ccn(C)c(=O)c3c2-c2ccc(O)cc2)ccn1)c1ccc(F)cc1 (racemic) [Example 119, 2-(4-fluorophenyl)-N-{4-[3-(4-hydroxyphenyl)-5-methyl-4-oxo-4,5-dihydro-1H-pyrrolo[3,2-c]pyridin-2-yl]pyridin-2-yl}propanamide] | 15 | 11 | > 20000 | 
12 | Cc1cccc(-c2c(-c3ccnc(NC(=O)C(C)c4ccc(F)cc4)c3)[nH]c3c2C(=O)NC(C)(C)C3)c1 (racemic) [Example 88, N-{4-[6,6-dimethyl-3-(3-methylphenyl)-4-oxo-4,5,6,7-tetrahydro-1H-pyrrolo[3,2-c]pyridin-2-yl]pyridin-2-yl}-2-(4-fluorophenyl)propanamide] | 8.6 | 11 | > 20000 | 
13 | CN1CC(C)(C)c2[nH]c(-c3ccnc(NC(=O)C(CC(F)F)c4ccc(F)cc4)c3)c(-c3ccccc3)c2C1=O (single isomer, unassigned; (-)) [Example 151, (−)-4,4-difluoro-2-(4-fluorophenyl)-N-[4-(5,7,7-trimethyl-4-oxo-3-phenyl-4,5,6,7-tetrahydro-1H-pyrrolo[3,2-c]pyridin-2-yl)pyridin-2-yl]butanamide] | 17 | 19 | > 20000 | 
14 | CN1CCc2[nH]c(-c3ccnc(NC(=O)C(CC(F)F)c4ccc(F)cc4)c3)c(-c3ccc(F)cc3F)c2C1=O (single isomer, unassigned) [Example 68, N-{4-[3-(2,4-difluorophenyl)-5-methyl-4-oxo-4,5,6,7-tetrahydro-1H-pyrrolo[3,2-c]pyridin-2-yl]pyridin-2-yl}-4,4-difluoro-2-(4-fluorophenyl)butanamide] | 4.1 | 5.6 |  | > 20000
15 | CC(C(=O)Nc1cc(-c2[nH]c3c(c2-c2ccccc2)C(=O)NCC3)ccn1)c1ccc(F)cc1 (racemic) [Example 74, 2-(4-fluorophenyl)-N-[4-(4-oxo-3-phenyl-4,5,6,7-tetrahydro-1H-pyrrolo[3,2-c]pyridin-2-yl)pyridin-2-yl]propanamide] | 1.6 | 3 | > 20000 | 
16 | CN1CCc2[nH]c(-c3ccnc(NC(=O)C(CC(F)F)c4ccc(F)cc4)c3)c(-c3ccc(F)cc3)c2C1=O (racemic) [Example 139, 4,4-difluoro-2-(4-fluorophenyl)-N-{4-[3-(4-fluorophenyl)-5-methyl-4-oxo-4,5,6,7-tetrahydro-1H-pyrrolo[3,2-c]pyridin-2-yl]pyridin-2-yl}butanamide] | 4.2 | 5.5 | > 20000 | 
17 | CN1C(=O)c2c([nH]c(-c3ccnc(NC(=O)C(CC(F)F)c4ccc(F)cc4)c3)c2-c2ccc(F)cc2)CC12CC2 (racemic) [Example 81, 4,4-difluoro-2-(4-fluorophenyl)-N-{4-[3′-(4-fluorophenyl)-5′-methyl-4′-oxo-1′,4′,5′,7′-tetrahydro-spiro[cyclopropane-1,6′-pyrrolo[3,2-c]pyridin]-2′-yl]pyridin-2-yl}butanamide] | 4.6 | 4.3 | > 20000 | 
18 | Cc1c(-c2ccnc(NC(=O)C(C)c3ccc(F)cc3)c2)[nH]c2ccn(C)c(=O)c12 (racemic) [Example 132, N-[4-(3,5-dimethyl-4-oxo-4,5-dihydro-1H-pyrrolo[3,2-c]pyridin-2-yl)pyridin-2-yl]-2-(4-fluorophenyl)propanamide] | 6.3 | 11 | > 20000 | 
19 | CC(C(=O)Nc1cc(-c2[nH]c3c(c2-c2ccc(F)cc2F)C(=O)N(C)CC3)ccn1)c1ccc(F)cc1 (single isomer, unassigned) [Example 70, N-{4-[3-(2,4-difluorophenyl)-5-methyl-4-oxo-4,5,6,7-tetrahydro-1H-pyrrolo[3,2-c]pyridin-2-yl]pyridin-2-yl}-2-(4-fluorophenyl)propanamide] | 16 | 7.6 | > 20000 | 
20 | CC(C(=O)Nc1cc(-c2[nH]c3ccn(C)c(=O)c3c2-c2cc(F)ccc2C#N)ccn1)c1ccc(F)cc1 (racemic) [Example 127, N-{4-[3-(2-cyano-5-fluorophenyl)-5-methyl-4-oxo-4,5-dihydro-1H-pyrrolo[3,2-c]pyridin-2-yl]pyridin-2-yl}-2-(4-fluorophenyl)propanamide] | 33 | 33 | > 20000 | 
21 | CN1CC(C)(C)c2[nH]c(-c3ccnc(NC(=O)C(CC(F)F)c4ccc(F)cc4)c3)c(-c3ccccc3)c2C1=O (racemic) [Example 150, (rac)-4,4-difluoro-2-(4-fluorophenyl)-N-[4-(5,7,7-trimethyl-4-oxo-3-phenyl-4,5,6,7-tetrahydro-1H-pyrrolo[3,2-c]pyridin-2-yl)pyridin-2-yl]butanamide] | 4.1 | 3.8 | > 20000 | 
